“Also recorded” adds a separate entry of the source. Where no end group is shown, it is not given here.
What was measured:
[1] = system: murine model of unilateral renal ischemia/reperfusion (UIR); assay: Unilateral renal ischemia/reperfusion (UIR) with daily i.p. peptide from day 7, tissues collected day 14; format: in vivo, C57BL6/J mice
Protocol: Starting seven days after surgery, pUR4 (25 mg/kg/d), III-11C (control; 25 mg/kg/d) or PBS were administered daily by intraperitoneal injection. Mice were sacrificed and tissues collected 14 days after surgery.
All procedures were approved by and performed according to the Department of Laboratory Animal Medicine and the Institutional Animal Care and Use Committee at the Cincinnati Children's Hospital Medical Center. Wild type C57BL6/J 9-10-week-old male mice (Jackson Laboratories) were used for these experiments.
Mice were allowed 1-2 weeks of acclimation upon arrival to the animal facility, after which they underwent unilateral ischemia/reperfusion (UIR) according to Le Clef et al., 2016.17 Briefly, mice were anesthetized with 3% isoflurane for surgical prep (abdominal hair removal, animal identification, etc.), and maintained at 1.5% isoflurane on a 37° C. heating pad throughout the procedure. Following surgical exposure of the ventral abdomen, an atraumatic clamp was placed on the left renal artery and vein for 30 minutes; verification of color change following reperfusion was performed by the surgeon before mice were sutured and glued (outer suture reinforcement), given buprenorphine and subcutaneous saline and returned to their cages. For each animal, the contralateral (right) kidney and renal blood vessels were visualized, but remained untouched. Sham animals underwent an identical surgical procedure, except that the left and right renal arteries and veins were exposed, but were not clamped. Seven (7) days after surgery, mice were weighed and randomly assigned to daily intraperitoneal (i.p.) injections of PBS, III-11C (control peptide; 25 mg/kg), or pUR4 (25 mg/kg).
14 days after UIR (7 days after the onset of daily peptide injections), mice were given 100U heparin and anesthetized with isoflurane; blood was collected and animals were perfused with cold PBS through the aortic arch. Kidneys were excised (and the capsule membrane carefully removed), weighed, and then bisected lengthwise; one half was placed in cold 4% paraformaledhyde overnight followed by paraffin embedding, the other half cut into ˜1 mm3 pieces and flash-frozen for RNA and protein isolation.
Fixed kidneys were paraffin embedded, sectioned at 8 μm and mounted onto glass slides. Prior to staining, the sections were deparaffinized in xylene and rehydrated to water through increasing dilutions of ethanol (100%, 95%, 70%, and then 50%). For picrosirius red staining, slides were incubated for 1 hour in 0.1% Sirius Red (in 1.3% aqueous picric acid), washed twice in acidified water (0.5% acetic acid), […] and mounted with Permount. Images were taken at 10× and 40× (Olympus BX-51 with a DS-Ril camera), and the percentage of red staining was quantified using Image J software (NIH) by two observers blinded to experimental conditions.
For immunofluorescent staining, deparaffinized and rehydrated sections were microwaved for 20 minutes in a sodium citrate antigen retrieval solution (Vector H-3300), and then permeabilized in 0.06% triton-X in TBS. Sections were blocked in 10% goat or donkey serum (depending on the secondary antibody) in TBS for 2 hours at room temperature, and then incubated with primary antibody in 1% serum/TBS overnight at 4° C. Antibodies used were as follows: lipocalin-2/NGAL (1:100; JM-3819, MBL Intl Corp), Tim1/Kim1 (1:100; AF1817, R&D Systems), CD45 (1:100; AF114, R&D Systems), fibronectin (1:100; ab2413, Abcam), collagen I (1:100; ab21286, Abcam), vimentin (1:100; ab45939, Abcam), alpha-smooth muscle actin (1:500; A5228, Sigma). Slides were then washed three times in TBST for 5 min each, and incubated with secondary antibodies for 45 minutes at room temperature. In these experiments the following secondary antibodies were used, all from Jackson ImmunoResearch: donkey anti-rabbit 488 (711-545-152), donkey anti-goat 488 (705-545-147), donkey anti-mouse 647 (715-605-150) and donkey anti-rabbit 647 (711-605-152). […]

[2] = target: fibronectin polymerization (Homo sapiens, UniProt P02751); details: in vitro; cited from earlier work
Sequence of fibronectin polymerization (P02751 32-2477): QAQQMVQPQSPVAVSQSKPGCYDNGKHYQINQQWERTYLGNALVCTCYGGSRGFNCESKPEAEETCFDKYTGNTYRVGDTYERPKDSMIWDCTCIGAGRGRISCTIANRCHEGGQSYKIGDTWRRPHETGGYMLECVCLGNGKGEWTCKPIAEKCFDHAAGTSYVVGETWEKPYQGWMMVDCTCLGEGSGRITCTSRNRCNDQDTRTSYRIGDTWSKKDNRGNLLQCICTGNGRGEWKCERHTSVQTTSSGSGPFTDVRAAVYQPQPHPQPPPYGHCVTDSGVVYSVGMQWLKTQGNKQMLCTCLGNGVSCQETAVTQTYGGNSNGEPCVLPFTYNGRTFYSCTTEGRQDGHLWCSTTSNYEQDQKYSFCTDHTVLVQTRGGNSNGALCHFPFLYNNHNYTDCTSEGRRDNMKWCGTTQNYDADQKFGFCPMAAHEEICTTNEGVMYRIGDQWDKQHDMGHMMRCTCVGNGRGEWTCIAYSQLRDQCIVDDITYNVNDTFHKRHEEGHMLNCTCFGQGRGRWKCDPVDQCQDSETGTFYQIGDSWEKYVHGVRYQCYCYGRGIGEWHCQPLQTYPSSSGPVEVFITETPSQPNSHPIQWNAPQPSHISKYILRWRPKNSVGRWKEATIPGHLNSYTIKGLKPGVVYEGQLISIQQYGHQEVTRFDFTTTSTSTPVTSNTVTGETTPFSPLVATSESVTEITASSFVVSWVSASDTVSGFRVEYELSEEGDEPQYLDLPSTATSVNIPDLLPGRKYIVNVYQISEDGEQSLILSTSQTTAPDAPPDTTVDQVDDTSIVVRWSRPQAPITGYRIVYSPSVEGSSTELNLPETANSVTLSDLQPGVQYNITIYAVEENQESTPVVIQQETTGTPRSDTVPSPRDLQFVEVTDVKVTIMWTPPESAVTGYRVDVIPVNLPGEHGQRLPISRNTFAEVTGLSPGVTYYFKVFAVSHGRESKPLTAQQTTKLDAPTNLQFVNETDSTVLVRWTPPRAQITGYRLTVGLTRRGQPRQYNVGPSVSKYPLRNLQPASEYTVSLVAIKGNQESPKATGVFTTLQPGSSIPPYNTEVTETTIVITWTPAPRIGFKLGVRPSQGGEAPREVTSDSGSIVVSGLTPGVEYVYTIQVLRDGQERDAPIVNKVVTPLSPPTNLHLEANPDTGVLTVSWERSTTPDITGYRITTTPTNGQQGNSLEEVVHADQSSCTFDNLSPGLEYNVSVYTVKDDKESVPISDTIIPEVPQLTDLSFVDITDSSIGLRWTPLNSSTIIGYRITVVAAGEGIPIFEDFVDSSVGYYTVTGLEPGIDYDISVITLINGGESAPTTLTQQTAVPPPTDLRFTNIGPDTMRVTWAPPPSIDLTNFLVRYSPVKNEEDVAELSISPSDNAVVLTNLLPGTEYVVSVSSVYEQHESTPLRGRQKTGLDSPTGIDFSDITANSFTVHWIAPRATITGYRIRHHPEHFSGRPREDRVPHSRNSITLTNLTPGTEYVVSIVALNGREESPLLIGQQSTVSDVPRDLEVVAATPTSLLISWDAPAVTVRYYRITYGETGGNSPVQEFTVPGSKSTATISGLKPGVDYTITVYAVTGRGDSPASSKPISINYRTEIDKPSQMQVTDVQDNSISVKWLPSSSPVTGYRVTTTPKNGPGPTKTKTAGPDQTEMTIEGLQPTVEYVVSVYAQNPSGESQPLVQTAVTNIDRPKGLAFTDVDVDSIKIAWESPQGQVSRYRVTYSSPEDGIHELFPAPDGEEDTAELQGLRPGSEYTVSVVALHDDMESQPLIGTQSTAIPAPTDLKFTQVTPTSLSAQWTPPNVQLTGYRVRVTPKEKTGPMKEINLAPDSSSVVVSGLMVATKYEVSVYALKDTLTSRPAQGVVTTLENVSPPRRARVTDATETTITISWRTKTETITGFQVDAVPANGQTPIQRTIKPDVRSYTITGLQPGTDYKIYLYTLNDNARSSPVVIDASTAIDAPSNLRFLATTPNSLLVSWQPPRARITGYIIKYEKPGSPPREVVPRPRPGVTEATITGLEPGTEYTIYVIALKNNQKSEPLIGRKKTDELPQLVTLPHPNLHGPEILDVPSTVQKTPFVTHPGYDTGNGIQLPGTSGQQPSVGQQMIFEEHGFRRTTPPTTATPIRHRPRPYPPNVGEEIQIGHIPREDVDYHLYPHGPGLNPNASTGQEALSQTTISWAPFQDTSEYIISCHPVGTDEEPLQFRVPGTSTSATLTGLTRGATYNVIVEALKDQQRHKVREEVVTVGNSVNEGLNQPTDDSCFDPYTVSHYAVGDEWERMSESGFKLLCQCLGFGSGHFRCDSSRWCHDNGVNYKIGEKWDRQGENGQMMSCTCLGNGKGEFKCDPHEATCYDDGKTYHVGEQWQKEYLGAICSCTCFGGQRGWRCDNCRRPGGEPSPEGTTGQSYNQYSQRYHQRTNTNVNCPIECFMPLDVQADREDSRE

vascular remodeling = details: localized pUR4 treatment; cited from earlier work
liver fibrosis = details: localized pUR4 treatment; cited from earlier work
[3] = system: myocardial ischemia/reperfusion (I/R) injury; details: cited from earlier work
[4] = system: unilateral ureteral obstruction (UUO); details: obstructive model of kidney injury; cited from earlier work
[5] = 2 weeks after UIR, 25 mg/kg/d, 25 mg/kg/day
[6] = 14 days after UIR, 25 mg/kg/d, 25 mg/kg/day
[7] = injured kidney, 2 weeks after UIR, 25 mg/kg/d, 25 mg/kg/day
[8] = injured vs contralateral kidney, 14 days after UIR, 25 mg/kg i.p. daily from day 7, 25 mg/kg
[9] = kidney, 2 weeks after UIR, 25 mg/kg/d
[10] = one week systemic daily administration, up to four weeks after I/R

CKDQSPLAGESGETEYITEVYGNQQNPVDIDKKLPNETGFSGNMVETEDT (also: His tag) [pUR4]
kidney weight / kidney weight-to-body weight ratio [1, 5]: partially restored; also recorded: significantly recovered
mature fibrillar collagen, second harmonic generation (SHG) [1, 5]: alleviation of fibrotic collagen deposition; also recorded: decreased kidney fibrosis
collagen deposition and maturation, picrosirius red staining (brightfield and polarized light) ([1]; 2 weeks after UIR, pUR4 vs III-11C, 25 mg/kg/d): decreased; also recorded: attenuated
periglomerular fibrosis (fibronectin, α-SMA and vimentin surrounding glomeruli) ([1]; 14 days after UIR, 25 mg/kg/d): reduced periglomerular fibrosis
alpha-smooth muscle actin (α-SMA) expression / positive cells, immunostaining [1, 6]: abrogated; also recorded: diminished
collagen I deposition, immunofluorescence [1, 6]: reduces this expansion; also recorded: concomitant decrease
fibronectin deposition in kidney interstitium, immunofluorescence [1, 6]: reduces this expansion; also recorded: decreased the amount of fibronectin
vimentin expression / expansion of vimentin-positive cells outside the glomerulus, immunostaining [1, 6]: abrogated; also recorded: diminished
CD45+ immune cell accumulation, immunostaining [1, 7]: abrogated
tubule damage and cellular infiltration, H&E staining [1, 7]: abrogates; also recorded: decrease in cellular infiltrate and reduced tubule damage
Havcr1 transcript expression, qPCR of kidney lysates [1, 8]: nearly abolished; also recorded: significantly reduced
lipocalin-2 (Lcn-2) transcript expression, qPCR of kidney lysates [1, 8]: nearly abolished; also recorded: significantly reduced
NGAL (lipocalin-2) protein expression, immunofluorescent staining [1, 9]: decreased
Tim-1/Kim-1 (Havcr1) protein expression, immunofluorescent staining [1, 9]: decreased
effect of injection in animals that underwent sham surgery ([1]; sham surgery, PBS vs III-11C vs pUR4): no differences were observed
fibronectin polymerization [2]: inhibit
fibronectin production or secretion [2]: not its production or secretion
excess ECM deposition (vascular remodeling): attenuates
excess ECM deposition (liver fibrosis): attenuates
deposition of ECM proteins ([3]; after myocardial I/R): attenuated
neutrophil infiltration ([3]; after myocardial I/R): reduced
proliferation of activated cardiac myofibroblasts ([3]; after myocardial I/R): reduced
cardiac function [3, 10]: improves
pathologic fibrosis and cardiac remodeling [3, 10]: decreases
fibrosis [4]: attenuate fibrosis
